According to patent US9006238B2, “Pyrazolo pyridine derivatives as NADPH oxidase inhibitors” (Genkyotex SA, priority 2008, dated 2015):

Key:
NOX [1] = biological target: T1, NOX (Homo sapiens, UniProt P04839); experiment: Amplex Red measurement of extracellular hydrogen peroxide (NOX activity) using DMSO-differentiated HL60 cells; type: cell-based; details: for IC50 / Inhibition (%) of NOX activity: DMSO-differentiated HL60 cells; for Inhibition (%) of NOX activity: test concentration not given
T1 construct: HL60 differentiation to the neutrophil phenotype was triggered by adding Me2SO; endogenous in cells; host or cells: HL-60 cells differentiated with DMSO (1.25% v/v, 6 days) to the neutrophil phenotype
T1 sequence (P04839 1-570): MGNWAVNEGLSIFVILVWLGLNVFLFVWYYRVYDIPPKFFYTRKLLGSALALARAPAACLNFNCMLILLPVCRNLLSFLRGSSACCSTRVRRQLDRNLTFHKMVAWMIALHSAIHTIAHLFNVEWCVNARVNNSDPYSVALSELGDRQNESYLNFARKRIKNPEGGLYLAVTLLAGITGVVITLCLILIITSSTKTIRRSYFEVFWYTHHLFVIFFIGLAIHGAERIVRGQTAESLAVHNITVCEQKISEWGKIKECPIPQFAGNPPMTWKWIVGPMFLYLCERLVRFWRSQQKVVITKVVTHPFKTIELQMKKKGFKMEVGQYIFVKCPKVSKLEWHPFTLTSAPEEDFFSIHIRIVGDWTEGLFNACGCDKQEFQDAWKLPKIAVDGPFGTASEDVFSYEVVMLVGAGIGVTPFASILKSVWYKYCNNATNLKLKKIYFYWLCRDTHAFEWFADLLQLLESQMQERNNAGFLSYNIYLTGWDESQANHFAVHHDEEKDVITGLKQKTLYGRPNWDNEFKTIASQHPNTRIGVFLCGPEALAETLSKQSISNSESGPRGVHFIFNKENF
T1 sequence (P13498 1-195 partner): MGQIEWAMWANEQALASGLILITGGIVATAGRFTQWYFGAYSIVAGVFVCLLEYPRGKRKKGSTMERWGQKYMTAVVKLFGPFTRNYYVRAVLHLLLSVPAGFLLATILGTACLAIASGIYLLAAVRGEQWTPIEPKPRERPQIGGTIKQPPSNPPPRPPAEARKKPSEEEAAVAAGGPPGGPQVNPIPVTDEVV
Description: (§1) The activity of the compounds according to the invention may be tested for their activity in the inhibition or reduction of formation of reactive oxygen species (ROS) from oxygen in cells. The activity of the compounds is tested in the following cell cultures by different techniques such as nitroblue tetrazolium, Amplex Red, Chemiluminescence (Luminol) and 2′,7′-dichlorodihydrofluorescein diacetate (H2DCF-DA) according to the protocols detailed below.
Human acute myeloid leukemia cell line HL-60 was cultured in RPMI 1640 (Invitrogen) supplemented with 10% heat-inactivated calf serum, 2 mM glutamine, 100 U/mL penicillin (Sigma), and 100 μg streptomycin (Sigma) at 37° C. under a humidified atmosphere of 5% CO2. HL60 differentiation to the neutrophil phenotype was triggered by adding Me2SO (final concentration 1.25% v/v for 6 days) to the culture medium.
(§2) Extracellular hydrogen peroxide was measured using Amplex UltraRed (Molecular Probes). Cells were trypsinized (1× Trypsin-EDTA), collected by centrifugation, and resuspended in HBSS supplemented with 1% glucose. Cells were seeded into black 96-well plates at a density of 50,000 cells in 200 μl testing buffer (HBSS 1% glucose containing 0.005 U/mL horseradish peroxidase (Roche) and 50 μM Amplex Red in the presence or absence of compounds according to the invention. As a control, DPI was included at a final concentration of 10 μM The plates were placed in the fluorescent Optima Fluorescent plate reader and kept at 37° C. during 20 min. Fluorescence was measured for […] with excitation and emission wavelengths of 544 nm and 590 nm respectively. NOX activities were expressed as % of the activity in control cells. Residual activity of DPI-treated cells was usually <10%.
The Table 2 below summarizes the percentage of inhibition of NOX activity as measured by Amplex Red using DMSO-differentiated HL60 cells as described above:
The Table 3 below summarizes the IC50 of NOX activity as measured by Amplex Red using DMSO-differentiated HL60 cells as described above: […]

NOX [2] = experiment: Nitroblue tetrazolium (NBT) test of intracellular and extracellular superoxide in cell cultures; type: cell-based, human; details: DPI final concentration 10 μM, 2.5 h
Description: as §1
Human microglia cell line (HMC3, human microglia clone 3) (Janabi et al., 1995, Neurosci. Lett. 195:105) were cultured in MEM (Eagle's minimum essential medium) containing 10% FBS with 50 U/ml penicillin G sodium 50 μg/ml streptomycin sulfate, and incubated at 37° C. for 24 hours. IFN-γ (human IFN-γ, Roche. 11 040 596 001) was added to the culture medium for a final concentration of 10 ng/ml 24 h, before detection of O2^− formation. […]
Intracellular and extracellular superoxide was measured by a colorimetric technique using a quantitative nitroblue tetrazolium (NBT) test. SOD-inhibitable conversion of NBT to formazan, a fine blue precipitate, in the presence of superoxide anion was measured using Fluostar Optima spectrometer (BMG labtech). […] The absorption was measured at 630 nm. For calculation, the absorbance at 630 nm was normalized for each individual well. […] NOX activities were expressed as % of the activity in control cells. […]

NOX [3] = experiment: Chemiluminescence (luminol) measurement of ROS in cell cultures; type: cell-based, human; details: 60 minutes at 37° C.
Description: as §1, §2
ROS was measured using the chemiluminescent probe luminol. […]

NOX [4] = experiment: H2DCF-DA (DCF fluorescence) measurement of ROS in HUVEC stimulated with TGF-β; type: cell-based, human; details: TGF-β stimulation
Description: as §1, with “below. […]” for “below.”
HUVEC were plated on coverslips and made quiescent overnight in 0.5% BSA before stimulation with TGF-β. […] DCF fluorescence was visualized at an excitation wavelength of 488 nm and emission at 515 to 540 nm. […] For calculation, the absorbance at […] was normalized to absorbance at […] for each individual well. […] NOX activities were expressed as % of the activity in control cells. […]

| SMILES | Residual activity of DPI-treated cells (NOX activity as % of the activity in control cells) (NOX [1]; DPI final concentration 10 μM) [%] | Residual activity of DPI-treated cells (NOX activity as % of the activity in control cells) (NOX [2]) [%] | Residual activity of DPI-treated cells (NOX activity as % of the activity in control cells) (NOX [3]) [%] | Residual activity of DPI-treated cells (NOX activity as % of the activity in control cells) (NOX [4]) [%] | IC50 (NOX [1]) [µM] | Inhibition (%) of NOX activity (NOX [1]) [%] |
| --- | --- | --- | --- | --- | --- | --- |
| c1ccc([I+]c2ccccc2)cc1 [DPI, Diphenyl-iodonium] | < 10 | < 10 | < 10 | < 10 |  |  |
| Cc1c2c(=O)n(CC(C)C)[nH]c2cc(=O)n1Cc1cccnc1 [Compound 44, 4-methyl-2-(2-methylpropyl)-5-(pyridin-3-ylmethyl)-1H-pyrazolo[4,3-c]pyridine-3,6 (2H,5H)-dione] |  |  |  |  | < 5 | 78 |
| Cc1c2c(=O)n(CCOc3ccc(Cl)cc3)[nH]c2cc(=O)n1Cc1ccccn1 [Compound 24, 2-[2-(4-chlorophenoxy)ethyl] 4-methyl-5-(pyridin-2-ylmethyl)-1H-pyrazolo[4,3-c] pyridine-3,6(2H,5H)-dione] |  |  |  |  | < 5 | 79 |
| CC(=O)N1CCC(Cn2c(-c3ccc(Cl)cc3)c3c(=O)n(C)[nH]c3cc2=O)CC1 [Compound 98] |  |  |  |  |  | 92 |
| COCCn1[nH]c2cc(=O)n(CCc3ccccn3)c(C)c2c1=O [Compound 15, 2-(2-Methoxyethyl)-4-Methyl-5-(2-Pyridin-2-Ylethyl)-1H-Pyrazolo[4,3-c]Pyridine-3,6(2H,5H)-Dione] |  |  |  |  | < 5 | 72 |
| COCCn1[nH]c2cc(=O)n(Cc3ccccc3CN3CCOCC3)c(C)c2c1=O [Compound 18, 2-(2-methoxyethyl)-4-methyl-5-[2-(morpholin-4ylmethyl)benzyl]-1H-pyrazolo[4,3-c]pyridine-3,6(2H,5H)-dione] |  |  |  |  | < 5 | 75 |
| Cc1c2c(=O)n(C)[nH]c2cc(=O)n1Cc1ccco1 [Compound 6, 5-(Furan-2-Ylmethyl)-2,4-Dimethyl-1H-Pyrazolo[4,3-c]Pyridine-3,6(2H,5H)-Dione] |  |  |  |  | < 5 | 74 |
| COCCn1[nH]c2cc(=O)n(CC(=O)N3CCOCC3)c(C)c2c1=O [Compound 20] |  |  |  |  | < 5 | 75 |
